Experimental data: ChEMBL document CHEMBL3046607, “Synthesis and Herbicidal Activity of New 1-Alkyl-3-aryloxypyrazole-4-carboxamide Derivatives” (J Pestic Sci, 2004)
Activity calls are given as the source filed them. The rule behind the calls is not given here.

Experiments:
Elatine triandra [1] = experiment: Post-emergence herbicidal activity against Elatine triandra assessed as bleaching of stem/leaf parts; type: functional, organism-based; also: test concentration or dose not given here
Ammannia multiflora [2] = experiment: Post-emergence herbicidal activity against Ammannia multiflora assessed as bleaching of stem/leaf parts; type: functional, organism-based
Rotala indica [3] = experiment: Post-emergence herbicidal activity against Rotala indica assessed as bleaching of stem/leaf parts; type: functional, organism-based
Lindernia procumbens [4] = experiment: Post-emergence herbicidal activity against Lindernia procumbens assessed as bleaching of stem/leaf parts; type: functional, organism-based; also: test concentration or dose not given here
[5] = system: Schoenoplectiella juncoides; experiment: Post-emergence herbicidal activity against Schoenoplectiella juncoides assessed as bleaching of stem/leaf parts; type: functional, organism-based; also: test concentration or dose not given here
Oryza sativa [6] = experiment: Phytotoxicity against Oryza sativa cv. Koshihikari (rice) at 33 g a.i/ha measured after 14 days; type: organism-based; settings: in vivo, 336 h
Ammannia multiflora [7] = experiment: Pre-emergence herbicidal activity against Ammannia multiflora at 33 g a.i/ha measured after 14 days; type: functional, organism-based
Elatine triandra [8] = experiment: Pre-emergence herbicidal activity against Elatine triandra at 33 g a.i/ha measured after 14 days; type: functional, organism-based
Rotala indica [9] = experiment: Pre-emergence herbicidal activity against Rotala indica at 33 g a.i/ha measured after 14 days; type: functional, organism-based
Lindernia procumbens [10] = experiment: Pre-emergence herbicidal activity against Lindernia procumbens at 33 g a.i/ha measured after 14 days; type: functional, organism-based
[11] = system: Schoenoplectiella juncoides; experiment: Pre-emergence herbicidal activity against Schoenoplectiella juncoides at 33 g a.i/ha measured after 14 days; type: functional, organism-based
Pontederia vaginalis [12] = experiment: Pre-emergence herbicidal activity against Monochoria vaginalis at 33 g a.i/ha measured after 14 days; type: functional, organism-based
Cyperus difformis [13] = experiment: Pre-emergence herbicidal activity against Cyperus difformis at 33 g a.i/ha measured after 14 days; type: functional, organism-based
Echinochloa oryzicola [14] = experiment: Pre-emergence herbicidal activity against Echinochloa oryzicola at 33 g a.i/ha measured after 14 days; type: functional, organism-based
Lindernia procumbens [15] = experiment: Pre-emergence herbicidal activity against Lindernia procumbens assessed as bleaching of stem/leaf parts; type: functional, organism-based
Pontederia vaginalis [16] = experiment: Pre-emergence herbicidal activity against Monochoria vaginalis assessed as bleaching of stem/leaf parts; type: functional, organism-based
[17] = system: Schoenoplectiella juncoides; experiment: Pre-emergence herbicidal activity against Schoenoplectiella juncoides assessed as bleaching of stem/leaf parts; type: functional, organism-based
Cyperus difformis [18] = experiment: Pre-emergence herbicidal activity against Cyperus difformis assessed as bleaching of stem/leaf parts; type: functional, organism-based
Echinochloa oryzicola [19] = experiment: Pre-emergence herbicidal activity against Echinochloa oryzicola assessed as bleaching of stem/leaf parts; type: functional, organism-based
Oryza sativa [20] = experiment: Phytotoxicity against Oryza sativa cv. Koshihikari (rice) at 10 g a.i/ha measured after 14 days; type: organism-based; settings: in vivo, 336 h
Ammannia multiflora [21] = experiment: Pre-emergence herbicidal activity against Ammannia multiflora at 10 g a.i/ha measured after 14 days; type: functional, organism-based
Rotala indica [22] = experiment: Pre-emergence herbicidal activity against Rotala indica at 10 g a.i/ha measured after 14 days; type: functional, organism-based
Elatine triandra [23] = experiment: Pre-emergence herbicidal activity against Elatine triandra at 10 g a.i/ha measured after 14 days; type: functional, organism-based
Lindernia procumbens [24] = experiment: Pre-emergence herbicidal activity against Lindernia procumbens at 10 g a.i/ha measured after 14 days; type: functional, organism-based
[25] = system: Schoenoplectiella juncoides; experiment: Pre-emergence herbicidal activity against Schoenoplectiella juncoides at 10 g a.i/ha measured after 14 days; type: functional, organism-based
Pontederia vaginalis [26] = experiment: Pre-emergence herbicidal activity against Monochoria vaginalis at 1 0 g a.i/ha measured after 14 days; type: functional, organism-based
Cyperus difformis [27] = experiment: Pre-emergence herbicidal activity against Cyperus difformis at 10 g a.i/ha measured after 14 days; type: functional, organism-based
Echinochloa oryzicola [28] = experiment: Pre-emergence herbicidal activity against Echinochloa oryzicola at 10 g a.i/ha measured after 14 days; type: functional, organism-based
Cyperus difformis [29] = experiment: Post-emergence herbicidal activity against Cyperus difformis assessed as bleaching of stem/leaf parts; type: functional, organism-based; also: test concentration or dose not given here
Pontederia vaginalis [30] = experiment: Post-emergence herbicidal activity against Monochoria vaginalis assessed as bleaching of stem/leaf parts; type: functional, organism-based
Echinochloa oryzicola [31] = experiment: Post-emergence herbicidal activity against Echinochloa oryzicola assessed as bleaching of stem/leaf parts; type: functional, organism-based
Ammannia multiflora [32] = experiment: Pre-emergence herbicidal activity against Ammannia multiflora assessed as bleaching of stem/leaf parts; type: functional, organism-based
Elatine triandra [33] = experiment: Pre-emergence herbicidal activity against Elatine triandra assessed as bleaching of stem/leaf parts; type: functional, organism-based
Rotala indica [34] = experiment: Pre-emergence herbicidal activity against Rotala indica assessed as bleaching of stem/leaf parts; type: functional, organism-based

Which Activity (Elatine triandra [1]) does the source give for Cn1cc(C(=O)Nc2ccc(F)cc2F)c(Oc2cccc(C(F)(F)F)c2)n1 here?
The Activity was “Active”.

And the Activity (Ammannia multiflora [2])?
The Activity was “Active”.

What about the Activity (Rotala indica [3]) of the same compound?
Its Activity is “Active”.

And the Activity (Lindernia procumbens [4])?
The Activity was “Active”.

What about the Activity [5] of the same compound?
Its Activity is “Active”.

And the Activity (Oryza sativa [6])?
Its Activity is “Non-toxic”.

What about the Activity (Ammannia multiflora [7]) of the same compound?
The Activity was “Active”.

What about the Activity (Elatine triandra [8]) of the same compound?
Its Activity is “Active”.

What about the Activity (Rotala indica [9]) of the same compound?
Its Activity is “Active”.

What about the Activity (Lindernia procumbens [10]) of the same compound?
Its Activity is “Active”.

And the Activity [11]?
Its Activity is “Active”.

And the Activity (Pontederia vaginalis [12])?
The Activity was “Active”.

What about the Activity (Cyperus difformis [13]) of the same compound?
The Activity was “Active”.

And the Activity (Echinochloa oryzicola [14])?
The Activity was “Active”.

And the Activity (Lindernia procumbens [15])?
The Activity was “Active”.

And the Activity (Pontederia vaginalis [16])?
The Activity was “Active”.

And the Activity [17]?
Its Activity is “Active”.

What about the Activity (Cyperus difformis [18]) of the same compound?
The Activity was “Active”.

What about the Activity (Echinochloa oryzicola [19]) of the same compound?
Its Activity is “Active”.

What about the Activity (Oryza sativa [20]) of the same compound?
Its Activity is “Non-toxic”.

And the Activity (Ammannia multiflora [21])?
The Activity was “inactive”.

What about the Activity (Rotala indica [22]) of the same compound?
Its Activity is “inactive”.

What about the Activity (Elatine triandra [23]) of the same compound?
Its Activity is “inactive”.

What about the Activity (Lindernia procumbens [24]) of the same compound?
Its Activity is “inactive”.

And the Activity [25]?
Its Activity is “inactive”.

And the Activity (Pontederia vaginalis [26])?
Its Activity is “inactive”.

What about the Activity (Cyperus difformis [27]) of the same compound?
Its Activity is “inactive”.

What about the Activity (Echinochloa oryzicola [28]) of the same compound?
Its Activity is “inactive”.

And the Activity (Cyperus difformis [29])?
The Activity was “Active”.

What about the Activity (Pontederia vaginalis [30]) of the same compound?
The Activity was “Active”.

And the Activity (Echinochloa oryzicola [31])?
Its Activity is “Active”.

What about the Activity (Ammannia multiflora [32]) of the same compound?
The Activity was “Active”.

And the Activity (Elatine triandra [33])?
Its Activity is “Active”.

And the Activity (Rotala indica [34])?
Its Activity is “Active”.

Which Activity (Elatine triandra [1]) does the source give for CCn1cc(C(=O)Nc2ccc(F)cc2F)c(Oc2cccc(C(F)(F)F)c2)n1 here?
The Activity was “Active”.

And the Activity (Ammannia multiflora [2])?
The Activity was “Active”.

What about the Activity (Rotala indica [3]) of the same compound?
The Activity was “Active”.

What about the Activity (Lindernia procumbens [4]) of the same compound?
The Activity was “Active”.

What about the Activity [5] of the same compound?
The Activity was “Active”.

What about the Activity (Oryza sativa [6]) of the same compound?
The Activity was “Non-toxic”.

What about the Activity (Ammannia multiflora [7]) of the same compound?
Its Activity is “Active”.

And the Activity (Elatine triandra [8])?
The Activity was “Active”.

And the Activity (Rotala indica [9])?
The Activity was “Active”.

And the Activity (Lindernia procumbens [10])?
The Activity was “Active”.

And the Activity [11]?
Its Activity is “Active”.

And the Activity (Pontederia vaginalis [12])?
Its Activity is “Active”.

What about the Activity (Cyperus difformis [13]) of the same compound?
The Activity was “Active”.

What about the Activity (Echinochloa oryzicola [14]) of the same compound?
The Activity was “Active”.

What about the Activity (Lindernia procumbens [15]) of the same compound?
Its Activity is “Active”.

And the Activity (Pontederia vaginalis [16])?
The Activity was “Active”.

And the Activity [17]?
Its Activity is “Active”.

What about the Activity (Cyperus difformis [18]) of the same compound?
The Activity was “Active”.

And the Activity (Echinochloa oryzicola [19])?
Its Activity is “Active”.

What about the Activity (Oryza sativa [20]) of the same compound?
The Activity was “Non-toxic”.

And the Activity (Ammannia multiflora [21])?
Its Activity is “Active”.

And the Activity (Rotala indica [22])?
The Activity was “Active”.

And the Activity (Elatine triandra [23])?
Its Activity is “Active”.

What about the Activity (Lindernia procumbens [24]) of the same compound?
Its Activity is “Active”.

And the Activity [25]?
Its Activity is “inactive”.

And the Activity (Pontederia vaginalis [26])?
The Activity was “Active”.

What about the Activity (Cyperus difformis [27]) of the same compound?
Its Activity is “Active”.

What about the Activity (Echinochloa oryzicola [28]) of the same compound?
The Activity was “Active”.

And the Activity (Cyperus difformis [29])?
Its Activity is “Active”.

And the Activity (Pontederia vaginalis [30])?
Its Activity is “Active”.

And the Activity (Echinochloa oryzicola [31])?
The Activity was “Active”.

What about the Activity (Ammannia multiflora [32]) of the same compound?
The Activity was “Active”.

And the Activity (Elatine triandra [33])?
Its Activity is “Active”.

And the Activity (Rotala indica [34])?
The Activity was “Active”.
